# Results as given in patent publication US6812036B2 (priority 2000, dated 2004).
# Tested on: Antibody #1
# Format: binding, mice
row,Structure (SMILES),cross-reactivity
1,CC(=O)OC[C@]12[C@H](O)C(=O)C(C)=C[C@H]1O[C@@H]1[C@H](O)C[C@@]2(C)[C@]12CO2 [15-acetyl-deoxynivalenol],358%
2,CC(=O)OC[C@]12C[C@H](OC(=O)CC(C)C)C(C)=C[C@H]1O[C@@H]1[C@H](O)[C@@H](O)[C@@]2(C)[C@]12CO2 [HT-2 toxin],9%
